Measurements as given in paper PMC8343220, “The selectivity of α‐adrenoceptor agonists for the human α1A, α1B, and α1D‐adrenoceptors” (Pharmacology Research & Perspectives, 2021).
Like-named read-outs stand apart in the source and are kept apart here. Blank lines part the entries; values can stand above or below the compound they belong to.

Key:
[1] = target: T1, human α1A‐adrenoceptor (Homo sapiens, UniProt P35348); assay: ^3H‐prazosin whole‐cell radioligand binding, CHO‐α1A cells; settings: for Log KD α1A, ^3H‐prazosin whole cell binding: CHO‐α1A cells, given as log KD (negative), mean ± SEM
T1 construct: expressed in transfected cells; host or cells: CHO-K1
T1 sequence (P35348 1-466): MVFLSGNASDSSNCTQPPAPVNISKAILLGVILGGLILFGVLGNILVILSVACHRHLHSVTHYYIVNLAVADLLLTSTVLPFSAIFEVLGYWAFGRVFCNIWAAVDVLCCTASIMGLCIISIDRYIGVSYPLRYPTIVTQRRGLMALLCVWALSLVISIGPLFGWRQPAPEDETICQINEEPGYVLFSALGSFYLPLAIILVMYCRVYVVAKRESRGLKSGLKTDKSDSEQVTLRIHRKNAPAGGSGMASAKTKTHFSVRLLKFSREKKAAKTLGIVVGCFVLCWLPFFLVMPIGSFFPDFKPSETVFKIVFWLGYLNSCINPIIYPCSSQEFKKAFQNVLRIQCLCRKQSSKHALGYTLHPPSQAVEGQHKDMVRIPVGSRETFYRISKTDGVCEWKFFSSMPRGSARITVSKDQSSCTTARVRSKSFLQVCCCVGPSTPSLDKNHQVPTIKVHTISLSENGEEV

[2] = target: T2, human α1D‐adrenoceptor (full length) (Homo sapiens, UniProt P25100); assay: ^3H‐prazosin whole‐cell radioligand binding, CHO‐α1D cells
T2 construct: human α1D‐adrenoceptor (full length) were used; expressed in transfected cells; host or cells: CHO-K1
T2 sequence (P25100 1-572): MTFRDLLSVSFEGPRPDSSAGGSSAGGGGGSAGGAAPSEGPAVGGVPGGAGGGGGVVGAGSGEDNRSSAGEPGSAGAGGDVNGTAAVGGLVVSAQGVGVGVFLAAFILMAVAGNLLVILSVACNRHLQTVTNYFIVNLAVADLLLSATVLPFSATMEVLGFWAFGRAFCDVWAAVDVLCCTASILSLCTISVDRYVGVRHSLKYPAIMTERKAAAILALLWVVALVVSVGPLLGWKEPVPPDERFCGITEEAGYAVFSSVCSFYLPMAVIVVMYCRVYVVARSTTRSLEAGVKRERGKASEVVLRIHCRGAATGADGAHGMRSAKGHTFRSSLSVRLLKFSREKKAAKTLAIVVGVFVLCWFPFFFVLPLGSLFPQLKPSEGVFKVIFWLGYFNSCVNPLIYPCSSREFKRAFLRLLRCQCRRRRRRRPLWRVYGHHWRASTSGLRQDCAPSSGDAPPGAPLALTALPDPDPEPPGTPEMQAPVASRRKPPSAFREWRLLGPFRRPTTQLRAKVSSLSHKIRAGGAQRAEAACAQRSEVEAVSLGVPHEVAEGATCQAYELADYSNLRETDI

[3] = target: T1, human α1A‐adrenoceptor; assay: Intracellular free calcium mobilization, CHO‐α1A cells; format: cell-based
[4] = target: T3, human α1B‐adrenoceptor (Homo sapiens, UniProt P35368); assay: Intracellular free calcium mobilization, CHO‐α1B cells; format: cell-based; settings: for Intracellular calcium release % ionomycin: maximal response as % of 10 µM ionomycin response
T3 construct: expressed in transfected cells; host or cells: CHO-K1
T3 sequence (P35368 1-520): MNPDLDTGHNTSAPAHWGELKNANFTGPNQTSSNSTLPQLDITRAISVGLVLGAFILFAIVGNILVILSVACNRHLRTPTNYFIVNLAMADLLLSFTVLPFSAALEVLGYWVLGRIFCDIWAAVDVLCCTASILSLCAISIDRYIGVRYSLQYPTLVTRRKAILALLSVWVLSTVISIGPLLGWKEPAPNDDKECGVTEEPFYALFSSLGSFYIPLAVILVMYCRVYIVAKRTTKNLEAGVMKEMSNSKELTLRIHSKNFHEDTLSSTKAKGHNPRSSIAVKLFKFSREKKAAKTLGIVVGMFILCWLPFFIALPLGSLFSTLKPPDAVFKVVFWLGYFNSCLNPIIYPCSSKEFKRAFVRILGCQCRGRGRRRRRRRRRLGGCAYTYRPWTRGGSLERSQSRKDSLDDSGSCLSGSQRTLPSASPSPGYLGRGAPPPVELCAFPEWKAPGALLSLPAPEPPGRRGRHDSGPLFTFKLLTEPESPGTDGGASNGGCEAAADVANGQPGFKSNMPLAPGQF

[5] = target: T2, human α1D‐adrenoceptor (full length); assay: Intracellular free calcium mobilization, CHO‐α1D cells; format: cell-based; settings: for Intracellular calcium release % ionomycin: maximal response as % of 10 µM ionomycin
[6] = target: T2, human α1D‐adrenoceptor (full length); assay: ERK1/2‐phosphorylation (Surefire Alphascreen), CHO‐α1D cells; format: cell-based
[7] = system: parental CHO cell line without any transfected receptors; assay: ERK1/2‐phosphorylation, parent CHO cells without transfected receptors; format: cell-based, Chinese hamster; settings: for ERK1/2-phosphorylation % PDBu: maximal response as % of PDBu (10μM) response
[8] = target: T3, human α1B‐adrenoceptor; assay: ^3H‐prazosin whole‐cell radioligand binding, CHO‐α1B cells; settings: for Log KD α1B, ^3H‐prazosin whole cell binding: given as log KD (negative), mean ± SEM
[9] = target: T1, human α1A‐adrenoceptor; assay: ERK1/2‐phosphorylation (Surefire Alphascreen), CHO‐α1A cells; format: cell-based; settings: CHO‐α1A cells; response at 100 μM ligand, no EC50 obtained
[10] = target: T3, human α1B‐adrenoceptor; assay: ERK1/2‐phosphorylation (Surefire Alphascreen), CHO‐α1B cells; format: cell-based
[11] = CHO cells without transfected receptors, mean ± s.e.m.
[12] = CHO‐α1B cells, whole‐cell binding (from Table 1), given as log KD (negative numbers)
[13] = CHO‐α1D cells, given as log KD (negative), mean ± SEM, 'early plateau' = specific binding not fully inhibited
[14] = CHO‐α1B cells, given as log EC50 (negative numbers)
[15] = CHO‐α1D cells, log values given negative

SMILES: Cc1ccc(/N=C/N(C)/C=N/c2ccc(C)cc2C)c(C)c1 [Amitraz]
Affinity selectivity ratio α1A vs α1B [1]: >33.1 fold
Affinity selectivity ratio α1B vs α1D [2]: >12.0 fold
Intracellular calcium release Log EC50 [3]: No response
Intracellular calcium release Log EC50 [4]: No response
Intracellular calcium release Log EC50 [5]: No response
ERK1/2‐phosphorylation % PDBu [6]: No response
ERK1/2‐phosphorylation Log EC50 [6]: No response
ERK1/2-phosphorylation Log EC50 [7]: No response
ERK1/2-phosphorylation % PDBu [7, 11]: No response

Log KD α1A, ^3H‐prazosin whole cell binding [1]: No binding
Log KD, ^3H‐prazosin binding [8, 12]: No binding
Log KD α1B, ^3H‐prazosin whole cell binding ([8]; CHO‐α1B cells): No binding
IC50 ([2]; CHO‐α1D cells, whole‐cell binding, given as IC50 > log value): > 100 µM
Log KD α1D, ^3H‐prazosin whole cell binding [2, 13]: No binding
Intracellular calcium release Log EC50 ([3]; CHO‐α1A cells, given as log EC50 (negative)): No response
Intracellular calcium release % ionomycin ([3]; CHO‐α1A cells, maximal response as % of 10 µM ionomycin): No response
Intracellular calcium release Log EC50 [4, 14]: No response
Intracellular calcium release % ionomycin ([4]; CHO‐α1B cells): No response
Intracellular calcium release Log EC50 [5, 15]: No response
Intracellular calcium release % ionomycin ([5]; CHO‐α1D cells): No response
ERK1/2‐phosphorylation Log EC50 [6, 15]: No response
ERK1/2‐phosphorylation % PDBu ([6]; CHO‐α1D cells, maximal response as % of PDBu): No response
SMILES: C[C@](N)(Cc1ccc(O)c(O)c1)C(=O)O [Methyldopa]
ERK1/2-phosphorylation % PDBu [7, 11]: No response
ERK1/2-phosphorylation Log EC50 [7, 11]: No response

IC50 ([8]; CHO‐α1B cells, printed as IC50> log value): > 1000 µM
Kd ([2]; 3H‐prazosin binding Log KD, CHO‐α1D cells, whole‐cell binding (from Table 1), log values given negative): 135 µM
Kd [2, 13]: 135 µM
EC50 ([4]; CHO‐α1B cells, given as log EC50 (negative numbers), read-out: Intracellular calcium release Log EC50 (converted)): 7.24 µM
Intracellular calcium release % ionomycin ([4]; CHO‐α1B cells): 58.4 ± 3.0%
Intracellular calcium release Log EC50 [5, 15]: No response
Intracellular calcium release % ionomycin ([5]; CHO‐α1D cells): No response
ERK1/2‐phosphorylation % PDBu at 100 µM [9]: 4.3 ± 1.9%
ERK1/2‐phosphorylation % PDBu at 100 µM ([10]; CHO‐α1B cells, response at 100 µM ligand (no EC50 given)): 7.1 ± 3.5%
ERK1/2‐phosphorylation % PDBu at 100 µM ([6]; CHO‐α1D cells, response at 100 µM ligand (no EC50 given)): 4.0 ± 2.5%
SMILES: CC(C)(C)NCC(O)c1ccc(O)c(CO)c1 (centres unmarked) [Salbutamol]
Emax at 100 µM ([7]; Cricetulus griseus, CHO, read-out: ERK1/2-phosphorylation % PDBu at 100μM): 3.5 ± 2%

SMILES: c1ccc2c(c1)CCCC2C1=NCCN1 (centres unmarked) [Tetrohydrozoline]
Log KD, ^3H‐prazosin binding [8]: −5.22
Intracellular calcium release % Ionomycin at 100 µM [4]: 2.9 ± 1.4%
ERK1/2‐phosphorylation % PDBu [10]: No response
ERK1/2‐phosphorylation Log EC50 [10]: No response

SMILES: Cc1sc(C)c2c1CCC=C2c1cnc[nH]1.O=C(O)/C=C\C(=O)O [T‐CG 1000]
Log KD α1A, ^3H‐prazosin whole cell binding [1]: −5.96 ± 0.05
Affinity selectivity ratio α1A vs α1B ([1]; higher affinity for α1A than α1B): 6.0 fold
Affinity selectivity ratio α1A vs α1D ([1]; higher affinity for α1A than α1D): 1.1 fold
Log KD, ^3H‐prazosin binding [8, 12]: −5.18
Log KD α1B, ^3H‐prazosin whole cell binding ([8]; CHO‐α1B cells): −5.18 ± 0.06
3H‐prazosin binding Log KD ([2]; CHO‐α1D cells, whole‐cell binding (from Table 1), log values given negative): −5.91
Log KD α1D, ^3H‐prazosin whole cell binding [2, 13]: −5.91 ± 0.12
Affinity selectivity ratio α1B vs α1D ([2]; higher affinity for α1D than α1B): 5.4 fold
Intracellular calcium release % ionomycin at 10 µM ([3]; CHO‐α1A cells, response at 10 μM ligand, no EC50 obtained): 21.0 ± 1.9%
Intracellular calcium release Log EC50 [4, 14]: No response
Intracellular calcium release % ionomycin ([4]; CHO‐α1B cells): No response
Intracellular calcium release Log EC50 [5, 15]: No response
Intracellular calcium release % ionomycin ([5]; CHO‐α1D cells): No response
ERK1/2‐phosphorylation % PDBu at 10 µM ([6]; CHO‐α1D cells, response at 10 µM ligand (no EC50 given)): 16.3 ± 5.9%
